{"source": "ChEMBL document CHEMBL1201862", "about": "“PubChem BioAssay data set” (2004)", "assay_in_all_cases": "NCI-60 cell line screen, 48 h", "key": {"A549": {"tested_on": "A549"}, "CAKI-1": {"tested_on": "CAKI-1"}, "CCRF-CEM": {"tested_on": "CCRF-CEM"}, "DLD-1": {"tested_on": "DLD-1"}, "DMS-273": {"tested_on": "DMS-273"}, "HCC 2998": {"tested_on": "HCC 2998"}, "HCT-116": {"tested_on": "HCT-116"}, "HCT-15": {"tested_on": "HCT-15"}, "HOP-18": {"tested_on": "HOP-18"}, "HOP-62": {"tested_on": "HOP-62"}, "HT-29": {"tested_on": "HT-29"}, "IGROV-1": {"tested_on": "IGROV-1"}, "KM-20L2": {"tested_on": "KM-20L2"}, "KM12": {"tested_on": "KM12"}, "LOX IMVI": {"tested_on": "LOX IMVI"}, "M19-MEL": {"tested_on": "M19-MEL"}, "MCF7": {"tested_on": "MCF7"}, "MOLT-4": {"tested_on": "MOLT-4"}, "Malme-3M": {"tested_on": "Malme-3M"}, "NCI-H226": {"tested_on": "NCI-H226"}, "NCI-H460": {"tested_on": "NCI-H460"}, "NCI/ADR-RES": {"tested_on": "NCI/ADR-RES"}, "OVCAR-3": {"tested_on": "OVCAR-3"}, "OVCAR-4": {"tested_on": "OVCAR-4"}, "OVCAR-5": {"tested_on": "OVCAR-5"}, "OVCAR-8": {"tested_on": "OVCAR-8"}, "RPMI-8226": {"tested_on": "RPMI-8226"}, "RXF 393": {"tested_on": "RXF 393"}, "SF-268": {"tested_on": "SF-268"}, "SF-295": {"tested_on": "SF-295"}, "SF-539": {"tested_on": "SF-539"}, "SK-MEL-28": {"tested_on": "SK-MEL-28"}, "SK-MEL-2": {"tested_on": "SK-MEL-2"}, "SK-MEL-5": {"tested_on": "SK-MEL-5"}, "SK-OV-3": {"tested_on": "SK-OV-3"}, "SNB-19": {"tested_on": "SNB-19"}, "SNB-78": {"tested_on": "SNB-78"}, "SW-620": {"tested_on": "SW-620"}, "U-251": {"tested_on": "U-251"}, "UACC-257": {"tested_on": "UACC-257"}, "UO-31": {"tested_on": "UO-31"}, "XF498": {"tested_on": "XF498"}, "786-0": {"tested_on": "786-0"}, "A498": {"tested_on": "A498"}, "ACHN": {"tested_on": "ACHN"}, "COLO 205": {"tested_on": "COLO 205"}, "DMS-114": {"tested_on": "DMS-114"}, "HL-60": {"tested_on": "HL-60"}, "HOP-92": {"tested_on": "HOP-92"}, "K562": {"tested_on": "K562"}, "LXFL 529": {"tested_on": "LXFL 529"}, "M14": {"tested_on": "M14"}, "NCI-H522": {"tested_on": "NCI-H522"}, "SN12C": {"tested_on": "SN12C"}, "SR": {"tested_on": "SR"}, "TK-10": {"tested_on": "TK-10"}, "UACC-62": {"tested_on": "UACC-62"}}, "note": "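Exposure lasted 48 hours, with cells grown in 96-well plates and compounds tested at five concentrations. GI50 is the concentration that inhibits growth by half.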 Activity calls are given as the source filed them. No stated cut-off is given here; in the data, active = GI50 up to about 1.1 µM and inactive = higher.", "data": [{"smiles": "COc1cc(/C=C(\\C#N)C(N)=O)cc(Br)c1O", "values": [{"measurement": "GI50", "setting": "A549", "result": "> 100 µM (inactive)"}, {"measurement": "GI50", "setting": "CAKI-1", "result": "> 100 µM (inactive)"}, {"measurement": "GI50", "setting": "CCRF-CEM", "result": "> 100 µM (inactive)"}, {"measurement": "GI50", "setting": "DLD-1", "result": "92 µM (inactive)"}, {"measurement": "GI50", "setting": "DMS-273", "result": "> 100 µM (inactive)"}, {"measurement": "GI50", "setting": "HCC 2998", "result": "> 100 µM (inactive)"}, {"measurement": "GI50", "setting": "HCT-116", "result": "> 100 µM (inactive)"}, {"measurement": "GI50", "setting": "HCT-15", "result": "> 100", "unit": "µM"}, {"measurement": "GI50", "setting": "HOP-18", "result": "> 100 µM (inactive)"}, {"measurement": "GI50", "setting": "HOP-62", "result": "92.3 µM (inactive)"}, {"measurement": "GI50", "setting": "HT-29", "result": "> 100 µM (inactive)"}, {"measurement": "GI50", "setting": "IGROV-1", "result": "> 100 µM (inactive)"}, {"measurement": "GI50", "setting": "KM-20L2", "result": "> 100 µM (inactive)"}, {"measurement": "GI50", "setting": "KM12", "result": "> 100 µM (inactive)"}, {"measurement": "GI50", "setting": "LOX IMVI", "result": "29.7 µM (inactive)"}, {"measurement": "GI50", "setting": "M19-MEL", "result": "> 100 µM (inactive)"}, {"measurement": "GI50", "setting": "MCF7", "result": "95.1 µM (inactive)"}, {"measurement": "GI50", "setting": "MOLT-4", "result": "> 100 µM (inactive)"}, {"measurement": "GI50", "setting": "Malme-3M", "result": "> 100 µM (inactive)"}, {"measurement": "GI50", "setting": "NCI-H226", "result": "> 100 µM (inactive)"}, {"measurement": "GI50", "setting": "NCI-H460", "result": "> 100 µM (inactive)"}, {"measurement": "GI50", "setting": "NCI/ADR-RES", "result": "> 100 µM (inactive)"}, {"measurement": "GI50", "setting": "OVCAR-3", "result": "> 100 µM (inactive)"}, {"measurement": "GI50", "setting": "OVCAR-4", "result": "> 100 µM (inactive)"}, {"measurement": "GI50", "setting": "OVCAR-5", "result": "> 100 µM (inactive)"}, {"measurement": "GI50", "setting": "OVCAR-8", "result": "> 100 µM (inactive)"}, {"measurement": "GI50", "setting": "RPMI-8226", "result": "70 µM (inactive)"}, {"measurement": "GI50", "setting": "RXF 393", "result": "> 100 µM (inactive)"}, {"measurement": "GI50", "setting": "SF-268", "result": "> 100 µM (inactive)"}, {"measurement": "GI50", "setting": "SF-295", "result": "> 100 µM (inactive)"}, {"measurement": "GI50", "setting": "SF-539", "result": "> 100 µM (inactive)"}, {"measurement": "GI50", "setting": "SK-MEL-28", "result": "> 100 µM (inactive)"}, {"measurement": "GI50", "setting": "SK-MEL-2", "result": "> 100 µM (inactive)"}, {"measurement": "GI50", "setting": "SK-MEL-5", "result": "> 100 µM (inactive)"}, {"measurement": "GI50", "setting": "SK-OV-3", "result": "> 100 µM (inactive)"}, {"measurement": "GI50", "setting": "SNB-19", "result": "> 100 µM (inactive)"}, {"measurement": "GI50", "setting": "SNB-78", "result": "> 100 µM (inactive)"}, {"measurement": "GI50", "setting": "SW-620", "result": "> 100 µM (inactive)"}, {"measurement": "GI50", "setting": "U-251", "result": "> 100 µM (inactive)"}, {"measurement": "GI50", "setting": "UACC-257", "result": "> 100 µM (inactive)"}, {"measurement": "GI50", "setting": "UO-31", "result": "96.6 µM (inactive)"}, {"measurement": "GI50", "setting": "XF498", "result": "23.2 µM (inactive)"}]}, {"smiles": "CC(=O)N1CCN(c2ccc(OCC3COC(Cn4ccnc4)(c4ccc(Cl)cc4Cl)O3)cc2)CC1", "note": "(stereo not given) [KETOCONAZOLE]", "values": [{"measurement": "GI50", "setting": "786-0", "result": "36 µM (inactive)"}, {"measurement": "GI50", "setting": "A498", "result": "37 µM (inactive)"}, {"measurement": "GI50", "setting": "A549", "result": "27.3 µM (inactive)"}, {"measurement": "GI50", "setting": "ACHN", "result": "36.2 µM (inactive)"}, {"measurement": "GI50", "setting": "CAKI-1", "result": "35.5 µM (inactive)"}, {"measurement": "GI50", "setting": "CCRF-CEM", "result": "27.6 µM (inactive)"}, {"measurement": "GI50", "setting": "COLO 205", "result": "20.1 µM (inactive)"}, {"measurement": "GI50", "setting": "DLD-1", "result": "33 µM (inactive)"}, {"measurement": "GI50", "setting": "DMS-114", "result": "16 µM (inactive)"}, {"measurement": "GI50", "setting": "DMS-273", "result": "20.5 µM (inactive)"}, {"measurement": "GI50", "setting": "HCC 2998", "result": "28.4 µM (inactive)"}, {"measurement": "GI50", "setting": "HCT-116", "result": "22.3 µM (inactive)"}, {"measurement": "GI50", "setting": "HCT-15", "result": 25.8, "unit": "µM"}, {"measurement": "GI50", "setting": "HL-60", "result": "20.1 µM (inactive)"}, {"measurement": "GI50", "setting": "HOP-18", "result": "> 100 µM (inactive)"}, {"measurement": "GI50", "setting": "HOP-62", "result": "39.4 µM (inactive)"}, {"measurement": "GI50", "setting": "HOP-92", "result": "41.7 µM (inactive)"}, {"measurement": "GI50", "setting": "HT-29", "result": "18.9 µM (inactive)"}, {"measurement": "GI50", "setting": "IGROV-1", "result": "38.7 µM (inactive)"}, {"measurement": "GI50", "setting": "K562", "result": "28.7 µM (inactive)"}, {"measurement": "GI50", "setting": "KM-20L2", "result": "32.7 µM (inactive)"}, {"measurement": "GI50", "setting": "KM12", "result": "30.6 µM (inactive)"}, {"measurement": "GI50", "setting": "LOX IMVI", "result": "16.9 µM (inactive)"}, {"measurement": "GI50", "setting": "LXFL 529", "result": "26.4 µM (inactive)"}, {"measurement": "GI50", "setting": "M14", "result": "22.4 µM (inactive)"}, {"measurement": "GI50", "setting": "M19-MEL", "result": "21.4 µM (inactive)"}, {"measurement": "GI50", "setting": "MOLT-4", "result": "22.5 µM (inactive)"}, {"measurement": "GI50", "setting": "Malme-3M", "result": "28.8 µM (inactive)"}, {"measurement": "GI50", "setting": "NCI-H226", "result": "18.7 µM (inactive)"}, {"measurement": "GI50", "setting": "NCI-H460", "result": "32.5 µM (inactive)"}, {"measurement": "GI50", "setting": "NCI-H522", "result": "25.6 µM (inactive)"}, {"measurement": "GI50", "setting": "OVCAR-3", "result": "28.1 µM (inactive)"}, {"measurement": "GI50", "setting": "OVCAR-4", "result": "39.1 µM (inactive)"}, {"measurement": "GI50", "setting": "OVCAR-5", "result": "30.3 µM (inactive)"}, {"measurement": "GI50", "setting": "OVCAR-8", "result": "26.7 µM (inactive)"}, {"measurement": "GI50", "setting": "RPMI-8226", "result": "35.9 µM (inactive)"}, {"measurement": "GI50", "setting": "RXF 393", "result": "22.2 µM (inactive)"}, {"measurement": "GI50", "setting": "SK-MEL-28", "result": "34.6 µM (inactive)"}, {"measurement": "GI50", "setting": "SK-MEL-2", "result": "17.4 µM (inactive)"}, {"measurement": "GI50", "setting": "SK-MEL-5", "result": "12.2 µM (inactive)"}, {"measurement": "GI50", "setting": "SK-OV-3", "result": "55.8 µM (inactive)"}, {"measurement": "GI50", "setting": "SN12C", "result": "52.4 µM (inactive)"}, {"measurement": "GI50", "setting": "SR", "result": "20.2 µM (inactive)"}, {"measurement": "GI50", "setting": "SW-620", "result": "48 µM (inactive)"}, {"measurement": "GI50", "setting": "TK-10", "result": "37.8 µM (inactive)"}, {"measurement": "GI50", "setting": "UACC-257", "result": "20.7 µM (inactive)"}, {"measurement": "GI50", "setting": "UACC-62", "result": "15.4 µM (inactive)"}, {"measurement": "GI50", "setting": "UO-31", "result": "25.8 µM (inactive)"}]}]}
